# Test: Inhibitory activity against gastrin receptor
row,IC50 [µM],Compound
1,0.79,"Cc1cccc(NC(=O)NC2N=C(c3ccccc3)c3ccccc3N(CC(=O)NCC(=O)NCCCOc3cccc(CN4CCCCC4)c3)C2=O)c1 (configuration not stated) [2-[2-Oxo-5-phenyl-3-(3-m-tolyl-ureido)-2,3-dihydro-benzo[e][1,4]diazepin-1-yl]-N-{[3-(3-piperidin-1-ylmethyl-phenoxy)-propylcarbamoyl]-methyl}-acetamide]"
2,0.032,"Cc1cccc(NC(=O)NC2N=C(c3cccc(OCC(=O)NCCCCCC(=O)NCCCOc4cccc(CN5CCCCC5)c4)c3)c3ccccc3N(C)C2=O)c1 (configuration not stated) [6-(2-{3-[1-Methyl-2-oxo-3-(3-m-tolyl-ureido)-2,3-dihydro-1H-benzo[e][1,4]diazepin-5-yl]-phenoxy}-acetylamino)-hexanoic acid [3-(3-piperidin-1-ylmethyl-phenoxy)-propyl]-amide]"
